Where two headings read alike, the source gives them in different places.
Legend:
[1] = tested on: Arachidonic Acid-Induced Inflammation of the Mouse Ear; assay: Arachidonic acid-induced mouse ear inflammation; format: in vivo, mouse (male Balb/c); conditions: for inhibition in vivo at 50 mg/kg: Mus musculus, 1 h, Table 7A, read-out: % Inhibition of Ear Swelling
Source text: (§1) In the following Examples where mice were used, they were male Balb/c mice (20-28 g), and where rats were used, they were male Lewis rats (180-210 g). All mice and rats were obtained from Charles River Breeding Laboratories, Kingston, N.Y. Within a single experiment, mice and rats were sex and age matched.
(§2) The compounds of Formula (I) were used either as the free base or in the appropriate salt form. Levamisole was used as the hydrochloride salt. The compounds were homogenized in 0.5% tragacanth. Compounds were administered by gavage at the indicated dose in a final volume of 10 ml/kg. Nordihydroguaiaretic acid (NDGA) was solubilized in dimethylacetamide and diluted with olive oil for subcutaneous administration.
Arachidonic acid in acetone ([…]) was applied to the inner surface of the left ear. The thickness of both ears was then measured with a dial micrometer one hour after treatment, and the data were expressed as the change in thickness (10^-3 cm) between treated and untreated ears.
Test compounds were given orally in 0.5% tragacanth at the times indicated in the text prior to the topical application of arachidonic acid.
Parenteral administration of compound was accomplished by subcutaneous injection of solution as indicated.

[2] = tested on: 5-lipoxygenase and LTA4 synthetase; assay: Di-HETE / LTB4 production by high speed supernatant of RBL-1 cells; format: biochemical; conditions: RBL-1 high speed supernatant; Table 9A; read-out: 5-LO IC50 (LTB4 production)
Method: For in vitro experiments, compounds were dissolved at appropriate concentrations in ethanol or DMSO (dimethylsulfoxide) (final concentration≤1.0%) and then diluted to final concentrations using the buffers indicated in the text.
The activities of these enzymes in extracts of RBL-1 cells were assayed using the method of Jakschik and Lee, Nature, 287, 51-52 (1980). RBL-1 cells were obtained from the American Type Culture Collection (#CRL 1378) and were grown at 37° C. (5% CO2 in air) in spinner culture in MEM supplemented with 10% heat inactivated fetal calf serum. Harvested cells were washed with 50 mM sodium phosphate buffer, pH 7.0, containing 1 mM EDTA and 0.1% gelatin, resuspended in fresh buffer (5×10^7 cells/ml) and disrupted by nitrogen cavitation using the Parr bomb at 750 psi for 10 min. The broken cell extract was then centrifuged at 10,000× g for 20 minutes (min) and the supernatant centrifuged at 100,000 xIg for 60 min. Aliquots (0.25 mls) of the supernatant were preincubated with or without drugs for 10 min, after which 10 μl CaCl2 (50 mM) was added and the reaction was initiated with 2.5 μl of 2.5 mM arachidonic acid-1-^14 C (final concentration was 25 μM; specific activity 20,000 dpm/nmole). After incubation for 3 min at 37° C., the reaction was terminated by addition of 2 volumes (0.5 ml) ice cold acetone and the sample was allowed to deproteinize on ice for 10 min prior to centrifugation at 1,000× g for 10 min. The deproteinized supernatant was adjusted to pH 3.5 with 2N formic acid and extracted with 2 volumes of ice cold ethyl acetate. The extracted samples were dried under argon, redissolved in ethyl acetate and applied to Whatman LK5D thin layer chromatography (TLC) plates which were developed using the A-9 solvent system [organic phase of ethyl acetate: 2,2,5-trimethylpentane:acetic acid: water (110:50:20:10)] described by Hamberg and Samuelsson, J. Biol. Chem., 241, 257-263 (1966). Arachidonic acid, 5-HETE, LTB4 and PGD2 were quantified with a Berthold LB 2832 autoscanner.
The 5-lipoxygenase and LTA4 synthetase activities were further studied under the following conditions. An additional centrifugation of the RBL-1 supernatant was run at 100,000× g for 60 min, to remove the particulate cyclooxygenase activity. Sample incubation was done under conditions similar to those described above, i.e., 2 mM CaCl2 and […] arachidonic acid-1-^14 C, however, with an incubation time of 5 min at 5° C. Under these conditions, only the 5-lipoxygenase pathway metabolites were detectable. The 5-HETE and di-HETEs were formed at a linear rate, and substantial amounts of the arachidonic acid-1-^14 C substrate were utilized.

[3] = tested on: Infiltration of Polymorphonuclear Leukocytes into Sites of Carrageenan-Induced Inflammation; assay: Mouse carrageenan peritonitis (PMN infiltration); format: in vivo, mouse (male Balb/c); conditions: for PMN infiltration, result in words: carrageenan peritonitis, mice
Source text: as §1, §2
Mice were pretreated with either the test compound or vehicle one hour before the intraperitoneal injection of a 1.0% carrageenan suspension in saline (0.2 ml/mouse). Mice were sacrificed by cervical dislocation two hours after injection, and 3.0 ml of phosphate buffered saline, without Ca^++ or Mg^++, was injected into the peritoneum. Following massage, a 2.0 ml aliquot of the lavage fluid was removed, and the total cell count determined on a Coulter counter and differential cell count determined by microscopic examination of Giesma-stained slides.

[4] = tested on: LTB4 synthesis by peritoneal exudate cells; assay: Ex vivo production of LTB4 from peritoneal exudate cells of drug-treated mice; format: in vivo, mouse; conditions: for inhibition at 50 mg/kg: Mus musculus, po, 50 mg/kg p.o.
Source text: In the following Examples where mice were used, they were male Balb/c mice (20-28 g), and where rats were used, they were male Lewis rats (180-210 g). All mice and rats were obtained from Charles River Breeding Laboratories, Kingston, N.Y. Within a single experiment, mice and rats were sex and age matched. Auranofin, phenidone, indomethacin, naproxen, and ibuprofen were each used as the free base. The compounds of Formula (I) were used either as the free base or in the appropriate salt form. Levamisole was used as the hydrochloride salt. […] Nordihydroguaiaretic acid (NDGA) was solubilized in dimethylacetamide and diluted with olive oil for subcutaneous administration. Carrageenan-induced peritoneal exudate cells from normal or drug-treated mice were washed and suspended in 2.2 ml of phosphate buffered saline. […] The cell preparation was centrifuged at 1500 rpm for 10 min and the supernatant was extracted using a C-18 silica column. […] A tetrahydrofuran, methanol, water, acetic acid (25:30:45: 0.1) solvent system, adjusted to pH 5.5 with ammonium hydroxide, was used at a flow rate of 0.7 ml/min. Cell derived LTB4 was quantified utilizing standard curves constructed with known amounts of synthetic LTB4.

Compound | IC50 [2] [µM] | inhibition in vivo at 50 mg/kg ([1]; 50 mg/kg s.c. or i.p.) [%] | further results
Fc1ccc(-c2nc3n(c2-c2ccc(F)cc2)CCC3)cc1 [Compound 8] | 8 |  | inhibition in vivo at 50 mg/kg ([1]; po, 50 mg/kg p.o.): 40%
c1cc(N2CCCCC2)ccc1-c1nc2n(c1-c1ccc(N3CCCCC3)cc1)CCS2 [Compound 4, 5,6-bis(4-(1-piperidinyl)phenyl)-2,3-dihydroimidazo[2,1-b] thiazole] | 0.6 | 22 | 
[O-][S+]1CCn2c1nc(-c1ccc(F)cc1)c2-c1ccc(F)cc1 (stereo not shown) [Compound 30] | 60 |  | 
Fc1ccc(-c2c(-c3ccccn3)nc3n2CCS3)cc1 [Compound 24, 5-(4-fluorophenyl)-6-(2-pyridinyl)-2,3-dihydroimidazo[2,1-b]thiazole] | 20 | 69 | 
Fc1ccc(-c2nc3n(c2-c2ccc(F)cc2)CCS3)cc1 [Compound 19] | 5 |  | inhibition in vivo at 50 mg/kg ([1]; po, 50 mg/kg p.o.): 34%
c1cc(-c2c(-c3ccc(N4CCCC4)cc3)nc3n2CCS3)ccn1 [Compound 25, 5-(4-pyridyl)-6-(4-(pyrrolidin-1-yl)-phenyl)-2,3-dihydroimidazo[2,1-b]thiazole] | 0.5 |  | inhibition in vivo at 50 mg/kg ([1]; po, 50 mg/kg p.o.): 17%
CC(Cc1ccc(O)c(O)c1)C(C)Cc1ccc(O)c(O)c1 (stereo not shown) [NDGA, Nordihydroguaiaretic acid] |  |  | PMN infiltration, result in words [3]: effective
COc1ccc(-c2nc3n(c2-c2ccc(OC)cc2)CCS3)cc1 [Compound 21] | 2.8 |  | 
CC(=O)Nc1ccc(-c2nc3n(c2-c2ccncc2)CCS3)cc1 [Compound 38, 5-(4-pyridyl)-6-(4-acetamidophenyl)-2,3-dihydroimidazo (2,1-b)thiazole] | 30 |  | 
COc1ccc(-c2nc3n(c2-c2ccc(OC)cc2)CCC3)cc1 [Compound 22] |  | 15 | 
c1cc(-c2nc3n(c2-c2ccncc2)CCS3)ccn1 [Compound 11, 5,6-Bis(4-pyridyl)-2,3-dihydroimidazo(2,1-b) thiazole] | 33 | 29 | 
COc1ccc(-c2nc3n(c2-c2ccc(F)cc2)CCS3)cc1 [Compound 14] | 0.6 | 64 | 
c1cc(N2CCCC2)ccc1-c1nc2n(c1-c1ccc(N3CCCC3)cc1)CCS2 [Compound 3, 5,6-bis(4-(1-pyrrolidinyl)phenyl)-2,3-dihydroimidazo[2,1-b] thiazole] | 0.1 | 44 | 
c1cc(-c2nc3n(c2-c2ccc4c(c2)OCO4)CCS3)ccn1 [Compound 7, 6-(4-pyridyl)-5-(3,4-methylenedioxyphenyl)-2,3-dihydroimidazo [2,1-b]thiazole] | 10 | 62 | 
COc1ccc2cc([C@H](C)C(=O)O)ccc2c1 [Naproxen] |  |  | inhibition at 50 mg/kg ([4]; Experiment 1): 0%; inhibition at 50 mg/kg ([4]; Experiment 2): 15%; inhibition at 50 mg/kg ([4]; Experiment 3): 0%; LTB4 production ex vivo, result in words ([4]; mouse, in vivo): inactive
CN(C)c1ccc(-c2nc3n(c2-c2ccc(F)cc2)CCS3)cc1 [Compound 6, 6-(4-dimethylaminophenyl)-5-(4-fluorophenyl)-2,3-dihydroimidazo[2,1-b]thiazole] | 0.6 | 48 | 
CC(C)Cc1ccc(C(C)C(=O)O)cc1 (stereo not shown) [Ibuprofen, reference compound] |  |  | Mouse ear edema, result in words ([1]; mouse, in vivo): did not exhibit detectable anti-inflammatory activity
COc1ccc(-c2nc3n(c2-c2ccc(OC)cc2)CCCS3)cc1 [Compound 20] | 5.6 | 47 | 
c1cc2c(cc1-c1nc3n(c1-c1ccc4c(c1)OCO4)CCS3)OCO2 [Compound 16] | 1.5 |  | inhibition in vivo at 50 mg/kg ([1]; po, 50 mg/kg p.o.): 32%
CCN(CC)c1ccc(-c2nc3n(c2-c2ccc(N(CC)CC)cc2)CCS3)cc1 [Compound 9, 5,6-bis(4-N,N-diethylaminophenyl)-2,3-dihydroimidazo [2,1-b]thiazole] | 0.16 |  | inhibition in vivo at 50 mg/kg ([1]; po, 50 mg/kg p.o.): 17%
c1cc(-c2c(-c3ccc4c(c3)OCO4)nc3n2CCS3)ccn1 [Compound 5] | 10 |  | 
CSc1ccc(-c2nc3n(c2-c2ccc(SC)cc2)CCS3)cc1 [Compound 32] | > 100 |  | 
O=S1(=O)CCn2c1nc(-c1ccc(F)cc1)c2-c1ccc(F)cc1 [Compound 31] | < 33 |  | 
FC(F)(F)c1ccc(-c2nc3n(c2-c2ccc(C(F)(F)F)cc2)CCS3)cc1 [Compound 15] | 10 |  | 
c1ccc([C@H]2CN3CCSC3=N2)cc1 [Levamisole] |  |  | PMN infiltration, result in words [3]: did not impair inflammatory cell infiltration
CC(=O)OC[C@H]1O[C@@H]([S-])[C@H](OC(C)=O)[C@@H](OC(C)=O)[C@@H]1OC(C)=O.CCP(CC)CC.[Au+] [Auranofin] |  |  | % Change (PMN) ([3]; 2 mg Au/kg, p.o., Table 3): -6%; PMN (Mean ± S.D.) ([3]; 2 mg Au/kg, p.o., Table 3): 7.50 ± 1.57 × 10^-5 /ml; PMN infiltration, result in words [3]: did not impair inflammatory cell infiltration
Fc1ccc(-c2nc3n(c2-c2ccccn2)CCS3)cc1 [Compound 23, 5-(2-pyridinyl)-6-(4-fluorophenyl)-2,3-dihydroimidazo[2,1-b]thiazole] | 42 | 65 | 
CCCNc1ccc(-c2nc3n(c2-c2ccncc2)CCS3)cc1 [Compound 2, 6-(4-(1-propylamino)phenyl)-5-(4-pyridyl)-2,3-dihydroimidazo[2,1-b]thiazole] | 7 | 23 | 
CN(C)c1ccc(-c2c(-c3ccc(F)cc3)nc3n2CCS3)cc1 [Compound 10, 5-(4-Dimethylaminophenyl)-6-(4-fluorophenyl)-2,3-dihydroimidazo[2,1-b]-thiazole] | 1.5 | 7 | 
N#Cc1ccc(-c2nc3n(c2-c2ccc(C#N)cc2)CCS3)cc1 [Compound 13, 5,6-bis(4-cyanophenyl)-2,3-dihydroimidazo[2,1-b]thiazole] | 15 | 50 | 

— patent US5134150A, “Inhibition of the 5-lipoxygenase pathway” (priority 1989, dated 1992)
